The results in this text go back to patent publication US10251835B2, “Cranial delivery of pharmaceuticals” (GLIA, LLC, priority 2013, dated 2019).

Test [1] has as its system patient unable to swallow with loss of appetite. The test can be described thus: Treatment of drug-induced anorexia and oropharyngeal dysphagia, dronabinol applied to forehead. Format: in vivo, human. How it is done:
A patient had been on dexamethasone therapy for 20 months following surgery, radiation, and chemotherapy. After tapering the dose of dexamethasone from 16 mg per day to 1.5 mg per day, the patient was unable to swallow and reported a loss of appetite. Dronabinol was administered to the patient's forehead once per day at 2.5 mg per dose. Improvement in swallowing and appetite were noted within 24 hours of the first administration.
After three weeks of continued dronabinol therapy, application was again stopped for 24 hours, resulting in the same loss of appetite and difficulty swallowing.
The effect of oral administration of dronabinol was tested after another two weeks as an alternative to the topical route of administration described above. […] Typical meals include steak, meatball sandwich and fruit drinks.
The patient had also ceased dexamethasone dosing very early on.

The test system of test [2] is patient with cognitive impairment due to surgery. The test can be described thus: Treatment of surgically induced cognitive deficits, cranially delivered dronabinol. Format: in vivo, human. The source says: The patient described in Example 1 suffered from a co-morbid condition of cognitive impairment due to surgery to remove a frontal lobe glioblastoma multiforma. The cognitive impairment continued for two years following the surgery at which time treatment with cranially delivered dronabinol was begun.

In test [3] the test system is person with late stage Alzheimer disease. The test can be described thus: Treatment of symptoms associated with Alzheimer's disease. The note with it: approximately 2 mg dronabinol to forehead, then daily dosing. In kind it is in vivo, human. How it is done:
A person diagnosed with late stage Alzheimer disease five years ago suffers from episodes of extreme agitation, aggressive behavior, and nocturnal restlessness and disorientation that is difficult for their caregiver to manage. Approximately 2 mg dronabinol was delivered cranially to their forehead.

Test [4] relates to person with CYMBALTA induced loss of appetite. The note with it: 2 mg dronabinol to forehead daily with oral CYMBALTA; 2 week course. How it is done: The subject topically applied 2 mg of dronabinol to their forehead daily together with the oral CYMBALTA™.
In test [5] the test system is subject with left-side trigeminal neuralgia and facial droop. Nature of the test: Treatment of trigeminal neuralgia and facial palsy. In kind it is in vivo, human. The note with it: progesterone 1% (1 mg) four times daily to forehead followed by 0.15 g ganciclovir (0.15% formulation) up to five times daily. As to the method: A subject presented with left-side trigeminal neuralgia and left side facial droop of 10 years duration. Therapy was initiated by topically applying progesterone (1% by weight) equivalent to 1 mg four times daily to the patient's forehead. This was followed by application of 0.15 g ganciclovir (as a 0.15% by weight formulation) up to five times daily.

In test [6] the test system is patient with corneal Herpes zoster. Nature of the test: Treatment of herpetic keratitis. In kind it is in vivo, human. As to conditions: for intraocular pressure: ganciclovir gel plus progesterone to forehead. The source says: A person suffered a first onset of active corneal Herpes zoster. They presented with classic Herpes Zoster symptoms including, left hemisphere unilateral skin lesions on forehead, bridge of nose area and down the nose not including the tip; left cornea dendrites, keratitis and edema; loss of functional vision, elevated intraocular pressure as high as 42 mm Hg, conjunctival irritation and redness and anesthetic cornea. There were also general body flu symptoms.
The patient was initially treated with ophthalmic prednisolone acetate 1% up to 5 times daily, ophthalmic antibiotics, non-prescription ophthalmic wetting agents, and lubrication with gels administered to the eye. Additional drug therapies included systemic oral valcyclovir as high as 2 g per day and medications to reduce intraocular pressure.
Despite the therapy, symptom flare-up was as frequent as 2 weeks to 1 month over the past 10 years. Although intraocular pressure returned to within the normal range, cataracts formed as a result of long term use of corticosteroids.
The cornea surface contour became increasingly distorted with prominent ridges. There was incursion of capillaries across the conjunctiva into the cornea, both superficially and deep. Deposition of phospholipids through a leaching process occluded the cornea with grey color deposits on about 50% of its surface.
Corneal thinning had progressed to near perforation levels which required preparation for corneal patch surgery.
At this point, 1% topical progesterone (approximately 1 mg of progesterone) was first administered as a method to keep the cornea from perforating and the tear film intact. The drug was applied to the forehead 4 times daily together with topical antibiotics and corticosteroids.
After stabilizing the cornea, antiviral treatment was begun with ganciclovir gel (0.15%; 0.15 mg of drug) applied five times daily to the forehead together with once daily progesterone (1%; 1 mg of drug) and a nightly drop of ophthalmic antibiotic. Intraocular pressure measured at the onset of ganciclovir treatment was 18 mm Hg.
The patient reported a decrease in eye strain as a result of an improvement in tear film. […] Over the next two weeks, inflammation was further reduced and visual acuity increased somewhat when the head was tilted back. During the first full month of treatment, the affected eye generally felt comfortable. There was a lack of inflammation, and some vision returned to the threshold of functionality. Intraocular pressure remained normal in the range of 16 mm Hg.
There was modest improvement in reading the eye chart, and corneal staining due to defects was minimized. Intraocular pressure remained normal in both eyes at about 16 mm Hg during this period. The phospholipid deposits further reduced in density and began to give the appearance of lesser areas of concentrations. Nearly functional vision could be achieved by positioning the head back and viewing through the central cornea. The residual clear area of the cornea became more so and less inflamed. Through the end of the second month, improvement to the cornea accelerated. The pupil was now clearly visible and more light was entering the eye.
The patient was examined regularly by an ophthalmologist, and after three and one half months of treatment. The intraocular pressure was normal at 12 mm Hg. […] Intraocular pressure has remained in the same range for more than one year.

Another test deals with person. The test can be described thus: Rapid anti-anxiety treatment. In kind it is in vivo, human. The note with it: 1 mg midazolam to forehead. As to the method: A person applied 1 mg of midazolam to their forehead on three separate occasions. […] These effects lasted for 4 to 6 hours after application of the drug.
Test [7] relates to dogs with mucus discharge from the eyes. Nature of the test: Treatment of dry eye in domestic animals. As to conditions: bulldog; tacrolimus directly in the eye. Format: in vivo, dog. The source says:
A puggle presented with mucus discharge from the eyes. […] The owner reported that the dog has this problem spring and fall, which indicates it is allergic seasonal rhinitis. The reported use took place in the fall.
A bulldog diagnosed with Sjogren's syndrome had mucus discharge from the eyes.

“Also recorded” adds a separate entry of the source.

Regarding `CCCCCc1cc(O)c2c(c1)OC(C)(C)[C@@H]1CCC(C)=C[C@@H]21` (relative stereo) [dronabinol, (6aR-trans)-6a,7,8,10a-tetrahydro-6,6,9-trimethyl-3-pentyl-6H-dibenzo[b,d]pyran-1-ol], in test [1] (after missing one day of dronabinol therapy), the “appetite and swallowing after missing dronabinol therapy” value is “decrease in appetite and difficulty swallowing liquids”. Further, the “dose requirement on continued treatment” value in test [1] (after one year of cranial dosing with challenge stops and restarts) was “No increase in dose has been required; also recorded: daily dosing is necessary for continued effectiveness”. The “appetite and swallowing (patient report)” value in test [1] (dronabinol 2.5 mg applied to forehead, four weeks, restarts and single rescue doses) is “healthy appetite and no problems swallowing; also recorded: normal appetite and swallowing after one day; also recorded: complete reversal of symptoms within about two hours; also recorded: rescued again by single dose applied cranially”. Moreover, the “time to improvement in swallowing and appetite” value in test [1] (dronabinol 2.5 mg per dose to forehead once per day, after first administration) was ≤ 24 h. In addition, the “swallowing and chewing under oral administration” value in test [1] (oral 2.5 mg dronabinol instead of topical, within one day) is “difficulty swallowing and chewing”. Further, the “scar tissue around the area of surgery as detected by imaging” value in test [2] was “noticeable decrease in scar tissue”. The “cognitive function (noted by physicians)” value in test [2] (begun two years after surgery) is reported as “dramatic improvement in cognitive function”. Moreover, the “agitation, aggressive behavior, nocturnal restlessness symptoms” value in test [3] was “improvement in their symptoms was observable within two hours; also recorded: less frequent nocturnal disturbances; also recorded: additional significantly noticeable improvement in their symptoms”. For the same compound, the “prevention of CYMBALTA induced loss of appetite” value in test [4] is recorded as “prevented the CYMBALTA™ induced loss of appetite”.
On to `Nc1nc(O)c2ncn(COC(CO)CO)c2n1` [ganciclovir], for which the “facial muscles contracted for 10 years” value in test [5] was “relaxation of facial muscles”. The “inflammation, visual acuity and state of affected eye” value in test [6] (ganciclovir gel 0.15% (0.15 mg) five times daily plus progesterone 1% (1 mg) once daily to forehead, nightly ophthalmic antibiotic, 1 week to 3.5 months) was “less inflammation and a slight improvement in visual acuity; also recorded: some functional vision was attained; also recorded: stable and normalizing”. Moreover, the intraocular pressure is recorded as 12 mm Hg in test [6] (after three and one half months); “about 16 mm Hg” in test [6] (both eyes, examination period up to third month); ~16 mm Hg in test [6] (first full month of treatment).
Regarding `Cc1ncc2n1-c1ccc(Cl)cc1C(c1ccccc1F)=NC2` [midazolam], in the test with person, the duration of effects was in the range of 4 to 6 h; the effect produced entry is “mild sedation and anti-anxiety”. Further, in the test on person (three separate occasions), the time to response was ≤ 5 min.
For the compound `C=CC[C@@H]1/C=C(\C)C[C@H](C)C[C@H](OC)[C@H]2O[C@@](O)(C(=O)C(=O)N3CCCC[C@H]3C(=O)O[C@H](/C(C)=C/[C@@H]3CC[C@@H](O)[C@H](OC)C3)[C@H](C)[C@@H](O)CC1=O)[C@H](C)C[C@@H]2OC` [tacrolimus], the “mucus discharge from the eyes” value in test [7] is reported as “without completely stopping the discharge”.
